Experimental findings from patent publication US5576296A, “Galanin antagonist” (priority 1991, dated 1996) are described below.

pIC50: −log10 of the molar value. Square brackets hold non-standard residues; d marks the D form. Ends that are not written are not given here. Peptide text beside a SMILES is read from it.

For the first assay, the system named is galanin receptor. Description: Displacement of 125I-galanin from membranes of Rin m 5F cells. The assay is classed as binding, rat. To be noted: Rin m 5F membranes, read-out: IC50. The protocol: 4) Ligand binding studies were conducted. Displacement of ^125 I-galanin by galanin, galanin fragment (1-13), Substance P fragment (4-11), galanin fragment (1-13) + Substance P fragment (4-11) in equimolar concentrations and the peptides of the invention M15, M35 and M34, A was studied.
Synthetic porcine galanin(1-29) was iodinated by chloramine-T-method to yield ^125 I-monoiodo-Tyr^26 -porcine galanin (specific activity 1800-2000 Ci/mmol), (as described by Land T., et al in: Methods in Neurosciences, Ed. M. Conn, 5, 1991, 225-234), and employed in ligand binding studies carried out at equilibrium.
The establishment and cell culture of Rin m 5F (a rat pancreatic β-tumor cell-line) cells have been described earlier (Gazdav A. F., et. al. Proc. Natl. Acad. Sci. USA, 77 (1980) 3519-3523). Briefly, the cells were grown in RPMI-1640 (Gibco) medium containing 10% (v/v) fetal calf serum, 2.06 mM L-gluthamine, 100 IU/ml penicillin and 100 μg/ml streptomycin in 10% CO2 -90% air 37° C. They were passaged every 5 days. The cells were detached from the surface of the bottles using 0.25% trypsin containing 1 mM EDTA and centrifuged at 2000 × g for 5 min at 4° C. The pellet was exposed for 15 min to hypoosmotic 5 mM HEPES buffer (pH 7.4). The suspension was centrifuged at 20000 × g for 15 min, the resulting pellet was resuspended in bacitracin-containing ([…]) 5 mM HEPES-buffered Krebs-Ringer solution (137 mM NaCl, […], 1.8 mM CaCl2, 1 g/1 glucose), pH 7.4, and used immediately in equilibrium binding experiments.
Displacement experiments were carried out in a final volume of 400 μl of bacitracin-containing (1 mg/ml) HEPES-buffered (5 mM) Krebs-Ringer solution, 0.05% (w/v) of BSA (pH 7.4) in the presence of 0.1-0.2 nM ^125 I-galanin, the membrane preparation and the increasing concentrations (10^-12 -10^-6 M) of unlabeled porcine galanin or of other galanin receptor ligands. Samples were incubated for 30 min at 37° C. Incubation was terminated by the addition of 10 ml of ice-cold HEPES-buffered Krebs-Ringer solution, followed by rapid filtration over Whatman GF/C filters, precoated for 5-6 hours in 0.3% (v/v) of polyethyleneimine solution. Filters were washed with 10 ml of assay solution. Radioactivity retained on the filters was determined in a Packard gamma counter. Specific binding was defined as that displaceable by 1 μM galanin (or appropriate concentration of a displacer).
The IC50 values of the displacing ligands were calculated from the computer-generated IC50 values as described by Land, T., et. al. (ibid).
Fitting of the experimental data was carried out on a Macintosh SE by means of a nonlinear least squares method using the Macintosh program "KaleidGraph".
(In general: In a radioligand displacement assay an active substance lowers the binding of a labelled ligand.)
With `CC(C)C[C@H](NC(=O)[C@H](CC(C)C)NC(=O)[C@H](Cc1ccc(O)cc1)NC(=O)CNC(=O)[C@H](C)NC(=O)[C@H](CO)NC(=O)[C@H](CC(N)=O)NC(=O)[C@H](CC(C)C)NC(=O)[C@@H](NC(=O)[C@H](Cc1c[nH]c2ccccc12)NC(=O)CN)[C@@H](C)O)C(=O)NCC(=O)N1CCC[C@H]1C(=O)O` [Galanin fragment (1-13), reference compound], the pIC50 is 7.00.

Take `CC(C)C[C@H](NC(=O)[C@H](CC(C)C)NC(=O)[C@H](Cc1ccc(O)cc1)NC(=O)CNC(=O)[C@H](C)NC(=O)[C@H](CO)NC(=O)[C@H](CC(N)=O)NC(=O)[C@H](CC(C)C)NC(=O)[C@@H](NC(=O)[C@H](Cc1c[nH]c2ccccc12)NC(=O)CN)[C@@H](C)O)C(=O)NCC(=O)N1CCC[C@H]1C(=O)N[C@@H](CCCCNC(=O)[C@@H]1CCCN1C(=O)[C@H](CC(C)C)NC(=O)[C@H](Cc1ccccc1)NC(=O)CNC(=O)CNC(=O)[C@@H](N)Cc1ccc(O)cc1)C(N)=O` [M34,A, Galanin(1-13)-Lys amide (Pro-Leuenkephalin(5-1))]: the pIC50 was 8.00.

Turning to `CC(C)C[C@H](NC(=O)[C@H](CC(C)C)NC(=O)[C@H](Cc1ccc(O)cc1)NC(=O)CNC(=O)[C@H](C)NC(=O)[C@H](CO)NC(=O)[C@H](CC(N)=O)NC(=O)[C@H](CC(C)C)NC(=O)[C@@H](NC(=O)[C@H](Cc1c[nH]c2ccccc12)NC(=O)CN)[C@@H](C)O)C(=O)NCC(=O)N1CCC[C@H]1C(=O)N1CCC[C@H]1C(=O)N1CCC[C@H]1C(=O)NCC(=O)N[C@@H](Cc1ccccc1)C(=O)N[C@@H](CO)C(=O)N1CCC[C@H]1C(=O)N[C@@H](Cc1ccccc1)C(=O)N[C@@H](CCCNC(=N)N)C(N)=O` [M 35, Galanin(1-13)-Bradykinin(2-9) amide], the pIC50 is 10.00.

The same assay, now with this note: Rin m 5F membranes, read-out: IC50 (no displacement).
For the molecule “Substance P fragment (4-11): fragment 4-11 of Substance P (PQQFFGLM; ends and bridges not checked; UniProt P20366 61-68, looked up, fragment) [reference compound]”, the negative logarithm of the IC50 (pIC50) was less than 5.00.

The next assay addresses galanin receptor. Description: Displacement of 125I-galanin, membranes from rat hypothalamus. Format: binding. To be noted: displacement experiments in rat hypothalamus, 125I-galanin. Here is the method: Adult male rats (Sprague-Dawley, 180-200 g) were decapitated, the hypothalami quickly dissected and homogenized (10% mass/vol.) in 0.05M TRIS-Cl buffer, pH 7.4. The homogenate was diluted tenfold and centrifuged at 1000 × g for 10 min. The supernatant was centrifuged at 10,000 × g for 45 min and the pellet resuspended in 5 mM Hepes buffered Krebs-Ringer solution (137 mM NaCl, 2.68 mM KCl, 1.8 mM CaCl2 1 g/1 glucose), pH 7.4 to yield a final protein concentration of 1.0-1.5 mg/ml.
Displacement experiments were carried out in a final volume of 400 μl of Hepes-buffered (5 mM) Krebs-Ringer solution, 0.05% (w/v) of BSA (pH 7.4 ) supplemented with bacitracin (1 mg/ml ) in the presence of 0.1-0.2 nM 1251-galanin, the membrane preparation from rat hypothalami and increasing concentrations (10-12, 10^-6M) of unlabeled galanin or of other galanin recepto-ligands. Samples were incubated for 30 min at 37° C. Incubation was terminated by the addition of 10 ml of ice-cold Hepes-buffered Krebs-Ringer solution, followed by rapid filtration over Whatman GF/C filters, precoated for 5-6 hours in 0.3% (v/v) of polyethylencimine solution. The filters were washed with 10 ml of assay solution. Radioactivity retained on the filters was determined in a Packard gamma counter. Specific binding was defined as that displaceable by 1 μM galanin.
The 1C50 values of the displacing ligands were calculated by fitting of the experimental data on a Macintosh SE by means of a nonlincar least squares method using the program "KaleidaGraph".
In turn, `CC(C)C[C@H](NC(=O)[C@H](CC(C)C)NC(=O)[C@@H](Cc1c[nH]c2ccccc12)NC(=O)[C@H](Cc1ccccc1)NC(=O)[C@@H](Cc1c[nH]c2ccccc12)NC(=O)[C@H](CCC(N)=O)NC(=O)[C@H](CCC(N)=O)NC(=O)[C@@H]1CCCN1C(=O)[C@H](CCCCN)NC(=O)[C@@H]1CCCN1C(=O)[C@@H](CCCNC(=N)N)NC(=O)[C@@H]1CCCN1C(=O)CNC(=O)[C@H](CC(C)C)NC(=O)[C@H](CC(C)C)NC(=O)[C@H](Cc1ccc(O)cc1)NC(=O)CNC(=O)[C@H](C)NC(=O)[C@H](CO)NC(=O)[C@H](CC(N)=O)NC(=O)[C@H](CC(C)C)NC(=O)[C@@H](NC(=O)[C@H](Cc1c[nH]c2ccccc12)NC(=O)CN)[C@@H](C)O)C(N)=O` [C 7, Galanin(1-12)-Pro-Spantide amide] (H-GWTLNSAGYLLGP[dR]PKPQQ[dW]F[dW]LL-NH2; N-terminus assumed) had a pIC50 of 9.70.

Consider `CC(C)C[C@H](NC(=O)[C@H](CC(C)C)NC(=O)[C@H](Cc1ccc(O)cc1)NC(=O)CNC(=O)[C@H](C)NC(=O)[C@H](CO)NC(=O)[C@H](CC(N)=O)NC(=O)[C@H](CC(C)C)NC(=O)[C@@H](NC(=O)[C@H](Cc1c[nH]c2ccccc12)NC(=O)CN)[C@@H](C)O)C(=O)NCC(=O)N1CCC[C@H]1C(=O)N[C@@H](CCCCNC(=O)[C@@H]1CCCN1C(=O)[C@H](CC(C)C)NC(=O)[C@H](Cc1ccccc1)NC(=O)CNC(=O)CNC(=O)[C@@H](N)Cc1ccc(O)cc1)C(N)=O` [M34,A, Galanin(1-13)-Lys amide (Pro-Leuenkephalin(5-1))], for which the negative-log IC50 (pIC50) is 8.00.

As for `CC[C@H](C)[C@H](NC(=O)[C@H](Cc1ccc(O)cc1)NC(=O)[C@H](Cc1c[nH]cn1)NC(=O)[C@H](CCCNC(=N)N)NC(=O)[C@@H]1CCCN1C(=O)CNC(=O)[C@H](CC(C)C)NC(=O)[C@H](CC(C)C)NC(=O)[C@H](Cc1ccc(O)cc1)NC(=O)CNC(=O)[C@H](C)NC(=O)[C@H](CO)NC(=O)[C@H](CC(N)=O)NC(=O)[C@H](CC(C)C)NC(=O)[C@@H](NC(=O)[C@H](Cc1c[nH]c2ccccc12)NC(=O)CN)[C@@H](C)O)C(=O)N[C@@H](CC(N)=O)C(=O)N[C@@H](CC(C)C)C(=O)N[C@H](C(=O)N[C@H](C(=O)N[C@@H](CCCNC(=N)N)C(=O)N[C@@H](CCC(N)=O)C(=O)N[C@@H](CCCNC(=N)N)C(=O)N[C@@H](Cc1ccc(O)cc1)C(N)=O)[C@@H](C)O)[C@@H](C)CC` [M 32, Galanin(1-13)-NPY(25-36) amide], the pIC50 was 10.30.

In the case of `CC(C)C[C@H](NC(=O)[C@H](CC(C)C)NC(=O)[C@H](Cc1ccc(O)cc1)NC(=O)CNC(=O)[C@H](C)NC(=O)[C@H](CO)NC(=O)[C@H](CC(N)=O)NC(=O)[C@H](CC(C)C)NC(=O)[C@@H](NC(=O)[C@H](Cc1c[nH]c2ccccc12)NC(=O)CN)[C@@H](C)O)C(=O)NCC(=O)N1CCC[C@H]1C(=O)N1CCC[C@H]1C(=O)N1CCC[C@H]1C(=O)NCC(=O)N[C@@H](Cc1ccccc1)C(=O)N[C@@H](CO)C(=O)N1CCC[C@H]1C(=O)N[C@@H](Cc1ccccc1)C(=O)N[C@@H](CCCNC(=N)N)C(N)=O` [M 35, Galanin(1-13)-Bradykinin(2-9) amide], the pIC50 was 9.70.

“GWTLNSAGYLLGARHYINLITRQRY-NH2 [M 88, Galanin(1-12)-Ala-NPY(25-36) amide]” showed a pIC50 of 9.00.

“GWTLNSAGYLLGPALALALA-NH2 [M 38, Galanin(1-13)-AlaLeuAlaLeuAlaLeuAla amide]” showed a pIC50 of 9.70.

In the case of “GWTLNSAGYLLGPPGFSPFR-NH2 [M20, Galanin(1-13)-Bradykinin(3-9) amide]”, the pIC50 was 9.00.

Molecule “GWTLNSAGYLLGPPPALALA-NH2 [M 40, Galanin(1-12)- -ProProProAlaLeuAlaLeuAla amide]” gave a pIC50 of 7.89.

“GWTLNSAGYLLGPPPLFGGY-NH2 [M36,A, Galanin(1-12)-ProProPro-Leuenkephalin(5-1) amide]”: the pIC50 is 7.70.

“GWTLNSAGYLLGPPPQQFFGLM-NH2 [M37, Galanin(1-12)-ProProPro-SP(5-11) amide]”: the pIC50 was 7.40.

With “GWTLNSAGYLLGPPPYGGFL-NH2 [M 36, Galanin(1-12)-ProProPro-Leuenkephalin(1-5) amide]”, the pIC50 was 7.40.

Staying with this assay, now noted: membranes from rat hypothalami.
Turning to “Rat galanin: galanin of rat sequence, unlabeled displacer [reference compound]”, the “Displacement curves, rat versus porcine galanin” value was “indistriguishable displacement curves”.

In general, pIC50 refers to the IC50 on a negative log10 scale, so that one unit is a factor of ten.
